Source: patent US9402819B2, “Anti-HIV compound and preparation method and use thereof” (Sichuan University, priority 2012, dated 2016)
Converted amounts (≈) assume the structure as drawn.

How the values were obtained:
HIV-2 CBL-20 = assay: Activity for HIV-2 CBL-20; conditions: for TI: HIV-2 CBL-20; for EC50: Human immunodeficiency virus 2
[1] = Activity for HIV-2 CBL-20
HIV-1IIIB [2] = assay: Anti-HIV activity in C8166 cells; assay type: cell-based; conditions: C8166 cells; for TI: CC50/EC50; for EC50: Human immunodeficiency virus 1, HIV-1IIIB, read-out: EC50
Procedure: (§1) The anti-HIV activity was determined by the “Guiding Principles of Anti HIV Drug Unclinical Pharmacodynamics” of SFDA which is tested by technology standard assay according to International Universal Standards and Methods. Where in CC50, EC50 were measured twice and took the average.

[3] = Cytotoxicity (CC50) in C8166 cells; assay type: cell-based; conditions: human
Procedure: as §1

HIV-2 ROD = assay: Activity for HIV-2 ROD; conditions: for TI: HIV-2 ROD; for EC50: Human immunodeficiency virus 2
[4] = Cytotoxicity (CC50) in H9 cells; assay type: cell-based, human; conditions: human, read-out: CC50
Procedure: as §1

HIV-1IIIB [5] = assay: Anti-HIV activity in H9 cells; assay type: cell-based; conditions: H9 cells; for TI: CC50/EC50; for EC50: Human immunodeficiency virus 1, HIV-1IIIB, read-out: EC50
Procedure: as §1

HIV-1TC-1 = assay: microbe, parasite or virus in culture; conditions: Human immunodeficiency virus 1
HIV-1A17 = assay: microbe, parasite or virus in culture; conditions: Human immunodeficiency virus 1
HIVKM018 = assay: microbe, parasite or virus in culture; conditions: Human immunodeficiency virus 1
[6] = for safety at high dose: high dose (10 g/kg); for acute toxicity test finding: in vivo
H9 cells = assay: Cytotoxicity (CC50) in H9 cells; assay type: cell-based, human
Procedure: as §1

[7] = Solubility in aqueous solution; assay type: physicochemical
From the text: Solubility is an important parameter of druggability. […] They are with good solubility and can be formulated into an oral formulation. The prodrugs can be hydrolyzed into 46 which is with good fat-solubility and TI as well as distribution.

[8] = Stability (degradation) in solutions of different pH; assay type: physicochemical
Procedure: For example, compound 67 was tested in solutions with PH=4.004, 6.864 and 9.182, and its degradation rate was […]. […] As to the Mechanism of action of the compounds, the possible binding mode between 46 and vif was predicted by docking There are five possible hydrogen bonds between them: two hydrogen bonds between the nitro group and Arg79 and Lys178, two hydrogen bonds between the oxygen atom of methoxyl group with His141 and Arg97, one hydrogen bond between the nitrogen atom of pyridine with Gly103. (The binding mode can be seen in FIG. 4)

[9] = simulated gastric fluid, in aqueous solution (pH=2)

Structure (SMILES) | TI (HIV-2 CBL-20) | EC50 (HIV-2 CBL-20) [µg/mL] | CC50 [1] [µg/mL] | TI (HIV-1IIIB [2]) | EC50 (HIV-1IIIB [2]) [µg/mL] | CC50 [3] [µg/mL] | CC50 (Activity for HIV-2 ROD) [µg/mL] | TI (HIV-2 ROD) | EC50 (HIV-2 ROD) [µg/mL] | CC50 ([4]; H9 cells) [µg/mL] | TI (HIV-1IIIB [5]) | EC50 (HIV-1IIIB [5]) [µg/mL] | safety at high dose [6] | acute toxicity test finding [6] | solubility [7, 9] [µg/mL] | further results
COc1ccccc1NC(=O)c1c(N)cccc1Sc1ccc([N+](=O)[O-])cc1 [Compound 25, 2-amino-N-(2-methoxyphenyl)-6-(4-nitrophenylthi-o)benzamide] | 199.72 | 0.82 (≈ 2.07 µM) | 164 (≈ 414 µM) | 310.02 | 0.21 (≈ 0.531 µM) | 65.4 (≈ 165 µM) | 185 (≈ 467 µM) | 312.90 | 0.59 (≈ 1.49 µM) | 153 (≈ 387 µM) | 206.68 | 0.74 (≈ 1.87 µM) | – | – | – | –
COc1ccccc1NC(=O)c1c(N)cccc1S(=O)(=O)c1ccc([N+](=O)[O-])cc1 [Compound 46, 2-amino-N-(2-methoxyphenyl)-6-((4-nitroph-enyl)sulfonyl)benzamide] | 444.44 | 0.45 (≈ 1.05 µM) | > 200 | – | 0.096 (≈ 0.225 µM) | 141 (≈ 329 µM) | > 200 | 487.8 | 0.41 (≈ 0.959 µM) | – | – | 0.66 (≈ 1.54 µM) | very safe | no abnormal phenomenon occurred | – | EC50 (HIV-1TC-1): 0.11 µg/mL (≈ 0.257 µM); EC50 (HIV-1A17): 18.7 µg/mL (≈ 43.8 µM); EC50 (HIVKM018): 6.23 µg/mL (≈ 14.6 µM); CC50 [4]: > 200 µg/mL
COc1ccccc1NC(=O)c1c(N)cccc1Oc1ccc([N+](=O)[O-])cc1 [Compound 48, 2-amino-N-(2-methoxyphenyl)-6-(4-nitrop-henoxy)benzamide] | – | – | – | – | – | – | – | – | – | – | 2.14 | – | – | – | – | CC50 (H9 cells): 76.60 µg/mL (≈ 202 µM)
COc1ccccc1NC(=O)c1c(NC(=O)CN)cccc1Sc1ccc([N+](=O)[O-])cc1.Cl [Compound 66, 2-(2-aminoacetamido)-N-(2-methoxyphenyl)-6-(4-nitrophenylthio)benzamide hydrochloride] | – | – | – | 97.01 | 0.81 | 78.3 | – | – | – | 72.3 | 451.69 | 0.16 | – | – | 1290 | –
COc1ccccc1NC(=O)c1c(NC(=O)CN)cccc1S(=O)(=O)c1ccc([N+](=O)[O-])cc1.Cl [Compound 67, 2-(2-aminoacetamido)-N-(2-methoxyphenyl)-6-((4-nitrophenyl)sulfonyl)benzamide hydrochloride hydrochloride] | – | 1.21 | 106 | – | – | 165 | 126 | – | 0.78 | 94.9 | – | – | very safe | no abnormal phenomenon occurred | – | solubility ([7]; aqueous buffer, in water with pH=7): 1730 µg/mL; degradation rate ([8]; solution PH=4.004): 0.2767; degradation rate ([8]; solution PH=6.864): 0.4956; degradation rate ([8]; solution PH=9.182): 9.182
COc1ccccc1NC(=O)c1c(NC(=O)C(N)CCCCN)cccc1Sc1ccc([N+](=O)[O-])cc1.Cl (stereo not drawn) [Compound 68, 2-(2,6-diaminohexanamido)-N-(2-methoxyphenyl)-6-((4-nitrophenyl)thio)benzamide hydrochloride] | – | – | – | – | – | 116 | – | – | – | 90.1 | – | – | – | – | 2850 | –
